Laboratory results as given in PubChem BioAssay (NCI).
“And” between values parts separate entries of the source, which are not always exact repeats. Equal entries are not always repeated.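 A five-concentration, 48-hour dose response in 96-well plates underlies each endpoint, interpolated linearly between surrounding concentrations. GI50 is the concentration that inhibits growth by half. TGI marks complete inhibition of growth.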

Key:
Assay in all cases: growth of human tumour cells (NCI), 48 h
[1] = test system: U251 CNS
[2] = test system: HCT-15 colon
[3] = test system: SR leukemia
[4] = test system: NCI-H460 lung
[5] = test system: PC-3 prostate
[6] = test system: SK-MEL-2 melanoma
[7] = test system: SK-OV-3 ovarian
[8] = test system: LOX IMVI melanoma
[9] = test system: NCI-H522 lung
[10] = test system: A498 renal

Row | Compound | GI50 [1] | TGI [1] | GI50 [2] | TGI [2] | GI50 [3] | TGI [3] | GI50 [4] | TGI [4] | GI50 [5] | TGI [5] [µM] | GI50 [6] | TGI [6] | GI50 [7] | TGI [7] | GI50 [8] | TGI [8] | GI50 [9] | TGI [9] | GI50 [10] | TGI [10]
1 | CCN1C(=O)/C(=c2\sc3n(c2=O)C2C(NN=3)N(CC)C(=O)N2CC)c2ccccc21 (stereo not given) | 0.577 µM | 30.1 µM | 0.394 µM | > 100 µM | 0.357 µM | > 100 µM | 0.402 µM | > 100 µM | 0.46 µM | > 100 | 3.21 µM | 44.2 µM | 2.12 µM | > 55.7 µM | 0.666 µM | 26.6 µM | 0.384 µM | 6.99 µM | 0.181 µM | 0.697 µM
2 | CCCCCCCCCCCCC(O)C1CCC(C(O)CCCCC(O)CCCCCC2CC(CC(C)=O)C(=O)O2)O1 (stereo not given) |  | 18.2 µM | 2.56 µM | 5.23 µM and 17.9 µM | 2.8 µM | 6.93 µM and 25.5 µM |  | > 43.8 µM |  | 4.24 | 1.36 µM | 2.88 µM and 15.8 µM |  | 26 µM | 1.06 µM | 2.24 µM and 9.49 µM |  | 19.9 µM | 5.64 µM | 20.6 µM
3 | CC[C@]12C=CCN3CC[C@@]4(c5ccc(OC)cc5N(C)[C@H]4[C@@](O)(C(=O)OC)[C@@H]1OC(=O)CCC(=O)O[C@H]1CC[C@H]4[C@@H]5CCC6=CC(=O)CC[C@@H]6[C@H]5CC[C@]14C)[C@@H]32 | 1.91 µM | > 50 µM | 1.51 µM | > 50 µM | 1.52 µM | > 50 µM | 3.01 µM | > 50 µM | 0.996 µM | > 50 | 1.24 µM | 2.85 µM | 2.04 µM | > 50 µM | 1.51 µM | 4.63 µM | 1.8 µM | > 50 µM | 1.38 µM | 9.42 µM
4 | CS(=O)(=O)Nc1cc(-c2ccc3ncc(C#N)c(Nc4ccc(F)c(Cl)c4)c3c2)cnc1Cl | 0.098 µM | 1.19 µM | 0.167 µM | 4.91 µM | 0.161 µM | 1.12 µM | 0.301 µM | > 29.1 µM | 0.197 µM | 10.6 | 0.133 µM | 0.53 µM | 0.194 µM | 0.731 µM | 0.169 µM | 0.698 µM | 0.113 µM | 1.46 µM | 0.0398 µM | 0.302 µM
5 | COc1ccc(OC)c(C2=C(c3cn(C)c4ccccc34)C(=O)NC2=O)c1 | > 25 µM | > 25 µM | > 23.9 µM | > 25 µM | 16.1 µM | > 25 µM | > 25 µM | > 25 µM | > 25 µM | > 25 | > 25 µM | > 25 µM | > 25 µM | > 25 µM | > 25 µM | > 25 µM | > 25 µM | > 25 µM | > 15.6 µM | > 25 µM
6 | CN1C(=O)C(N=Nc2ccc([N+](=O)[O-])cc2)SC1=S (stereo not given) | 3.3 µM and 7.63 µM | 70.8 µM and > 100 µM | 2.63 µM and 6.8 µM | > 100 µM | 2.66 µM and 4.47 µM | > 100 µM | 2.98 µM and 5.43 µM | 24.9 µM and > 100 µM | 1.6 µM and 4.65 µM | > 100 | 8.98 µM and 5.29 µM | 37.8 µM and 42.5 µM | 7.51 µM and 11.2 µM | 74.4 µM and 51.5 µM | 2.56 µM and 9.05 µM | 48.5 µM and 98.4 µM | 4.52 µM and 3 µM | 52.5 µM and 47.9 µM | 4.1 µM and 4.16 µM | 18.3 µM and 51 µM
